# In ChEMBL document CHEMBL1157666, “Design, synthesis and biological evaluation of thiazolidinone derivatives as potential EGFR and HER-2 kinase inhibitors” (Bioorg Med Chem, 2010):
# Key:
# [1] = biological target: Epidermal growth factor receptor (Homo sapiens, UniProt P00533); experiment: biochemical
# Description: Inhibition of cloned EGFR autophosphorylation expressed in baculovirus-infected Sf9 cells by solid-phase ELISA
# MCF7 = experiment: cells; conditions: Homo sapiens, MCF7, 48 h
# [2] = biological target: T1, Receptor tyrosine-protein kinase erbB-2 (Homo sapiens, UniProt P04626); experiment: biochemical
# Description: (§1) Inhibition of human cloned HER2 autophosphorylation expressed in baculovirus-infected Sf9 cells by solid-phase ELISA
# [3] = biological target: T1, Receptor tyrosine-protein kinase erbB-2
# Description: as §1
# T1 sequence (P04626 whole entry): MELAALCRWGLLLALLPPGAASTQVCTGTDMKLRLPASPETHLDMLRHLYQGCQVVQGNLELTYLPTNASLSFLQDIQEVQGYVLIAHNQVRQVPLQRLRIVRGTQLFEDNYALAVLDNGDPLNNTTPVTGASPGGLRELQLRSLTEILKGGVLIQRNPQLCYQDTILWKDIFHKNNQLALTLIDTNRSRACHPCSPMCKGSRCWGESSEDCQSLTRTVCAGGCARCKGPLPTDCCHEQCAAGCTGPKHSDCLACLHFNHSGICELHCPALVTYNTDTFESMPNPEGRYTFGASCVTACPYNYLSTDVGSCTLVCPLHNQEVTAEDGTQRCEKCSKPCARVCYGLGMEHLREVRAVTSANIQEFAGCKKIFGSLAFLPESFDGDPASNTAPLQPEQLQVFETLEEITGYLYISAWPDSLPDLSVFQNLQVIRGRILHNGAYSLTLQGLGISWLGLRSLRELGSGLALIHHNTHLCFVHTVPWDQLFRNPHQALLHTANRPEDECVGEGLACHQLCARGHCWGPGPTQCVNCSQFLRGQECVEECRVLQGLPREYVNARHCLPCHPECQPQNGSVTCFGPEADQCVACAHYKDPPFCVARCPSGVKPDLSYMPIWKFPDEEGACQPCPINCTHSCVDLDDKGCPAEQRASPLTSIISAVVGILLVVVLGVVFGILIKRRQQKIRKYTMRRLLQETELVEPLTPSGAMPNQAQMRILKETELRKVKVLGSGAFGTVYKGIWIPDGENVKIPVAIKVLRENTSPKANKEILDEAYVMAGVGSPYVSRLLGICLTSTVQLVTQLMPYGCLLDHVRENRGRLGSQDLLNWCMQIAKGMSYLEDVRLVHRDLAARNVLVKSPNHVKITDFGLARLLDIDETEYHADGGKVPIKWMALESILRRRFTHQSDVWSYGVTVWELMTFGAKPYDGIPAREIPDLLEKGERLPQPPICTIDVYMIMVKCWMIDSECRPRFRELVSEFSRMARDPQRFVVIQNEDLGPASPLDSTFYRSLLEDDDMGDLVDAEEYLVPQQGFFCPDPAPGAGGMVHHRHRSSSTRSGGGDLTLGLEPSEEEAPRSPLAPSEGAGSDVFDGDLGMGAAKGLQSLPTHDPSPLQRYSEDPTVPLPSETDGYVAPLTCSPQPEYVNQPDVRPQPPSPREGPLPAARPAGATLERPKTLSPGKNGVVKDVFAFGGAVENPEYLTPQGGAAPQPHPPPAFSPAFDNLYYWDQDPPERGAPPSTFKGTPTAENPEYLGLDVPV
# Epidermal growth factor receptor, sequence (P00533 whole entry): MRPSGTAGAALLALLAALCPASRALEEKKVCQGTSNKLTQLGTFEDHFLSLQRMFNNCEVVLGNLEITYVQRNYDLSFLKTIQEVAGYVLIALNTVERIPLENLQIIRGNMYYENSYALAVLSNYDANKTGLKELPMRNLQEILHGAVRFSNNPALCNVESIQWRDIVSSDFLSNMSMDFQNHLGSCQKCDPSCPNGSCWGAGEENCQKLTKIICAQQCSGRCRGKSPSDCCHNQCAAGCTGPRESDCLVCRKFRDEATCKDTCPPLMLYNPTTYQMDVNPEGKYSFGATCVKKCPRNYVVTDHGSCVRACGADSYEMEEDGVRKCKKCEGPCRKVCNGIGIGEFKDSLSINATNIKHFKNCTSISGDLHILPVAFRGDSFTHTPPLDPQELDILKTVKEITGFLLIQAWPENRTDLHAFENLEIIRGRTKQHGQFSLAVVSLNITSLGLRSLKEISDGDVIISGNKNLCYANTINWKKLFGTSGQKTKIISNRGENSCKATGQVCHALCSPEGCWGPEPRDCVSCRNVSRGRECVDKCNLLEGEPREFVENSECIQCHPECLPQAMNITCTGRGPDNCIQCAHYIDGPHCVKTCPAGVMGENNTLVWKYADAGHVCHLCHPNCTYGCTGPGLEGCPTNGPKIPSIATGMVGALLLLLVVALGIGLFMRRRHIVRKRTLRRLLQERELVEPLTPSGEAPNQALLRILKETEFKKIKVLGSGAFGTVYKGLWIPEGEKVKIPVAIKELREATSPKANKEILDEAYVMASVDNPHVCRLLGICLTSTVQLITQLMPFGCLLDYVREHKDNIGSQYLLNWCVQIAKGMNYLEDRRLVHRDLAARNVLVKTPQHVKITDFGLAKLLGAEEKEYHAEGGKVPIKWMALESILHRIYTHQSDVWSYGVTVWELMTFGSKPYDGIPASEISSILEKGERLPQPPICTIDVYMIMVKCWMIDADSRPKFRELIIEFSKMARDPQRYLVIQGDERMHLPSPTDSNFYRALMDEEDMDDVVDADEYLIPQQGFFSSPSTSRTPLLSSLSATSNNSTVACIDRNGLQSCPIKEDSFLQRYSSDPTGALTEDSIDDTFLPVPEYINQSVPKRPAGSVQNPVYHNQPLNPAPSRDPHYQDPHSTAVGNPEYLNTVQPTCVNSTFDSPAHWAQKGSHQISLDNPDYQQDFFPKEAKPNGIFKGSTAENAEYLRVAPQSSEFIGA
SMILES,IC50 [1],IC50 (MCF7),IC50 [2],IC50 [3]
O=C1CSC(N/N=C/c2cc(Br)cc(Br)c2O)=N1,1.24 µM,0.62 µM,3.73 µM,
O=C1CSC(N/N=C/c2cccc([N+](=O)[O-])c2)=N1,26.6 µM,12.6 µM,37.6 µM,
O=C1CSC(N/N=C/c2ccc(Br)cc2)=N1,1.72 µM,0.97 µM,2.43 µM,
O=C1CSC(N/N=C/c2cc(Br)ccc2O)=N1,,0.06 µM,,0.42 µM
O=C1CSC(NN=C2CCCCCCC2)=N1,,18.4 µM,31 µM,
O=C1CSC(N/N=C/c2ccc(O)cc2)=N1,4.71 µM,1.67 µM,6.93 µM,
O=C1CSC(NN=C2CCCCCC2)=N1,36 µM,27.6 µM,47 µM,
Cc1cccc(/C=N/NC2=NC(=O)CS2)c1,23.5 µM,8.19 µM,31.8 µM,
COc1cccc(/C=N/NC2=NC(=O)CS2)c1,31.2 µM,9.73 µM,45.5 µM,
O=C1CSC(NN=C2CCC2)=N1,> 50 µM,46.3 µM,> 50 µM,
O=C1CSC(N/N=C/c2ccc(Cl)cc2)=N1,1.94 µM,1.82 µM,2.75 µM,
O=C1CSC(N/N=C/c2cc(Cl)cc(Cl)c2O)=N1,1.46 µM,1.56 µM,4.51 µM,
O=C1CSC(N/N=C/c2cccc(O)c2)=N1,19.3 µM,11.8 µM,27.8 µM,
O=C1CSC(N/N=C/c2cccc(F)c2)=N1,13.5 µM,7.78 µM,21.7 µM,
O=C1CSC(N/N=C/c2cccc(Br)c2)=N1,7.46 µM,2.42 µM,10.3 µM,
O=C1CSC(N/N=C/c2ccc([N+](=O)[O-])cc2)=N1,6.82 µM,2.77 µM,8.46 µM,
O=C1CSC(NN=C2CCCC2)=N1,> 50 µM,38.5 µM,> 50 µM,
COc1ccc(/C=N/NC2=NC(=O)CS2)cc1,5.78 µM,3.16 µM,9.17 µM,
O=C1CSC(N/N=C/c2ccc(F)cc2)=N1,2.18 µM,1.58 µM,3.89 µM,
O=C1CSC(NN=C2CCCCC2)=N1,41 µM,32.1 µM,> 50 µM,
O=C1CSC(N/N=C/c2cc(Cl)ccc2O)=N1,0.56 µM,0.18 µM,1.78 µM,
Cc1ccc(/C=N/NC2=NC(=O)CS2)cc1,,2.05 µM,5.83 µM,
O=C1CSC(N/N=C/c2cc(F)ccc2O)=N1,0.97 µM,0.27 µM,3.59 µM,
O=C1CSC(N/N=C/c2cccc(Cl)c2)=N1,10.8 µM,4.31 µM,14.3 µM,
